For the test, the target named is T1, human NOX4 (Homo sapiens, UniProt Q9NPH5).
T1 construct: expressed in transfected cells; membrane fraction used
T1 sequence (Q9NPH5 1-578): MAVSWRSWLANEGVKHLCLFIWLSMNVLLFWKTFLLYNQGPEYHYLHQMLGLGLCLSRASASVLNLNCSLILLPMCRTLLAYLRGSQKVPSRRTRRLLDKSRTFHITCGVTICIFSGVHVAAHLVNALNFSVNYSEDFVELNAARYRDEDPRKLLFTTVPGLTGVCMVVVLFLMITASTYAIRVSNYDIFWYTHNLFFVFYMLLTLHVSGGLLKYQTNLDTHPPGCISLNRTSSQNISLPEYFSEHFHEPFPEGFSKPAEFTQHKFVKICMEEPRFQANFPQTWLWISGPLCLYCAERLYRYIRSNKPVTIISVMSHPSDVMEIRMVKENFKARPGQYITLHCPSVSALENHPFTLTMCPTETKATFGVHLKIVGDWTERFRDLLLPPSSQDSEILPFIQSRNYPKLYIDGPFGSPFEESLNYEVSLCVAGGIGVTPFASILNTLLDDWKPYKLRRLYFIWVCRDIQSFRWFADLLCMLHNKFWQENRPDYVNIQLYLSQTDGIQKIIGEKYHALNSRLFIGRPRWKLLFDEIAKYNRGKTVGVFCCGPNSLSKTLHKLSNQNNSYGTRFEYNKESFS
T1 sequence (P13498 1-195 partner): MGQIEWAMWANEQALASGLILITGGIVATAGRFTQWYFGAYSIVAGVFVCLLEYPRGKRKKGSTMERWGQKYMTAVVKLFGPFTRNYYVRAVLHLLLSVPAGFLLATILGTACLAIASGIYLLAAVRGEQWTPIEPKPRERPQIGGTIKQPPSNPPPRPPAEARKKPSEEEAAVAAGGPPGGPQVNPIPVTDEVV
The test is described as follows: Cell free membrane based in vitro NOX4 assay: H2O2 production by membranes expressing human NOX4, measured with Amplex Red. In kind it is biochemical. To be noted: for inhibition at 1 µM: 1.0 μM compound, read-out: Percentage inhibition at 1.0 μM; for IC50: class symbols; for inhibition at 10 µM: 10.0 μM compound, read-out: Percentage inhibition at 10.0 μM. In a few lines:
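Membranes from HEK cells stably overexpressing human NOX4 were preincubated 20 min with inhibitor in pH 7.4 HEPES buffer containing HRP and Amplex Red, then NADPH was added. H2O2 was followed for 10 min by fluorescence (ex 544/em 590 nm). IC50 from nonlinear regression of % maximal uninhibited response.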

The values below come from US20200247800A1, “SUBSTITUTED BICYCLIC HETEROCYCLIC COMPOUNDS AS NADPH OXIDASE INHIBITORS” (Glenmark Pharmaceuticals S.A., priority 2017, published 2020).

Some results are limits rather than exact numbers.

As usually defined, the inhibition is the relative decrease from the control value, in per cent. As a reminder, the IC50 is the concentration at which inhibition is half-maximal. Low values mean higher potency, high ones lower potency. On to `CCn1nc(C)c2c(=O)c(O)c(-c3ccccc3C(F)(F)F)[nH]c21` [Example 143, 1-Ethyl-5-hydroxy-3-methyl-6-(2-(trifluoromethyl)phenyl)-1H-pyrazolo[3,4-b]pyridin-4(7H)-one], for which the inhibition at 1 µM was found to be 73.1% and the IC50 fell in the range of 100 to 150 nM.

As for `CCn1nc(C)c2c(=O)c(O)c(-c3ccc(OCC4CC4)cc3F)[nH]c21` [Example 121, 6-[4-(Cyclopropylmethoxy)-2-fluorophenyl]-1-ethyl-5-hydroxy-3-methyl-1,7-dihydro-4H-pyrazolo[3,4-b]pyridin-4-one], the inhibition at 1 µM was determined as 70.2% and the IC50 is > 150 nM.

For `Cn1ncc2c(=O)c(O)c(-c3ccc(Cl)cc3Cl)[nH]c21` [Example 5, 6-(2,4-Dichlorophenyl)-5-hydroxy-1-methyl-1,7-dihydro-4H-pyrazolo[3,4-b]pyridin-4-one], the inhibition at 1 µM is 74%, the inhibition at 10 µM turned out to be 84.2% and the IC50 was > 150 nM.

On to `CCCn1nc(C)c2c(=O)c(O)c(-c3ccc(OC)cc3F)[nH]c21` [Example 82, 6-(2-Fluoro-4-methoxyphenyl)-5-hydroxy-3-methyl-1-propyl-1H-pyrazolo[3,4-b]pyridin-4(7H)-one], for which the inhibition at 1 µM is 87.5% and the IC50 lay within 50 to 100 nM.

Take `Cn1nc(N2CCOCC2)c2c(=O)c(O)c(-c3c(F)cccc3F)[nH]c21` [Example 117, 6-(2,6-Difluorophenyl)-5-hydroxy-1-methyl-3-morpholino-1H-pyrazolo[3,4-b]pyridin-4(7H)-one]: the inhibition at 1 µM amounted to 6.79% and the inhibition at 10 µM was found to be 15.6%.

As for `Cc1nc2c(=O)c(O)c(-c3ccccc3Cl)[nH]c2s1` [Example 62, 5-(2-Chlorophenyl)-6-hydroxy-2-methyl[1,3]thiazolo[5,4-b]pyridin-7(4H)-one], the inhibition at 1 µM was found to be 39%, the inhibition at 10 µM was found to be 98% and the IC50 was > 150 nM.

For `CCn1nc(C(F)(F)F)c2c(=O)c(O)c(-c3c(F)cccc3F)[nH]c21` [Example 100, 6-(2,6-Difluorophenyl)-1-ethyl-5-hydroxy-3-(trifluoromethyl)-1H-pyrazolo[3,4-b]pyridin-4(7H)-one], the inhibition at 1 µM came out at 66.7%, the inhibition at 10 µM turned out to be 84.8% and the IC50 was > 150 nM.

Turning to `CCn1nc(C)c2c(=O)c(O)c(-c3c(F)cc(OC)cc3F)[nH]c21` [Example 118, 6-(2,6-Difluoro-4-methoxyphenyl)-1-ethyl-5-hydroxy-3-methyl-1H-pyrazolo[3,4-b]pyridin-4(7H)-one], the inhibition at 1 µM is 78.8%, the inhibition at 10 µM was determined as 77.5% and the IC50 lay in the range of 50 to 100 nM.

Turning to `Cc1nn(C(C)C)c2[nH]c(-c3ccccc3Cl)c(O)c(=O)c12` [Example 28, 6-(2-Chlorophenyl)-5-hydroxy-3-methyl-1-(propan-2-yl)-1,7-dihydro-4H-pyrazolo[3,4-b]pyridin-4-one], the inhibition at 1 µM was found to be 82.1%, the inhibition at 10 µM was 58.9% and the IC50 lay in the range of 100 to 150 nM.

Regarding `O=c1c(O)c(-c2c(F)cccc2F)[nH]c2c1c(C(F)(F)F)nn2C1CCOCC1` [Example 134, 6-(2,6-Difluorophenyl)-5-hydroxy-1-(tetrahydro-2H-pyran-4-yl)-3-(trifluoromethyl)-1,7-dihydro-4H-pyrazolo[3,4-b]pyridin-4-one], the inhibition at 1 µM came to 57.1%, the inhibition at 10 µM amounted to 88.2% and the half-inhibitory concentration (IC50) was > 150 nM.

As for `CCCn1nc(C)c2c(=O)c(O)c(-c3c(F)cccc3F)[nH]c21` [Example 79, 6-(2,6-Difluorophenyl)-5-hydroxy-3-methyl-1-propyl-1H-pyrazolo[3,4-b]pyridin-4(7H)-one], the inhibition at 1 µM turned out to be 78.4%, the inhibition at 10 µM amounted to 81.6% and the IC50 lay within 100 to 150 nM.
